Data: patent US20230255970A1, “COMPOSITIONS AND METHODS FOR TREATING PROLIFERATIVE DISEASES” (The Broad Institute, Inc., priority 2020, published 2023)

Experiments:
[1] = system: HEK293, HepG2, A549 cells; conditions: per PubChem, cited from earlier work
[2] = system: TRAF2 overexpression in U2OS cells; assay: Cell Painting morphological profile matching to TRAF2 overexpression; format: cell-based, human; conditions: for Corr. to TRAF2: Pearson correlation of Cell Painting signatures, U2OS cells
From the text: (§1) Of these, analysis of the 220 constructs that were most closely representative of the annotated full-length transcripts was prioritized. […] Not all genes are likely to impact cellular morphology given the limitation of the experiment; using a single cell line at a single time point under a single set of conditions and stained with six fluorescent labels.
(§2) This standardization was done plate wise, based on the mean and standard deviation of the controls at profile level for the compound dataset. […] The signatures were then obtained by averaging the replicate profiles feature-wise. Pearson correlation was used on the aligned signatures of a gene and compound to score their connection.

KP230 cells [3] = assay: Proliferation assay, KP230 cells; format: cell-based, mouse; conditions: 10 μM daily for 72 hours
From the text: (§3) YAP1 cell culture and treatments: Eisinger lab: Murine KP230 cells, a Yap1-dependent cancer cell line, were derived from a tumor from the KP mouse model (Kras^G12/D; Trp53^f/fl), as described in Eisinger-Mathason, T. S. K. et al., Proc. Natl. Acad. Sci. U.S.A 112 (2015): E3402-11, which is hereby incorporated by reference in its entirety. STS-109 UPS cells were derived from a human UPS tumor and validated by Rebecca Gladdy, MD (Sinai Health System, Toronto, Ontario, Canada). TC32 cells were a gift from Patrick Grohar, MD, PhD (Children's Hospital of Philadelphia). HT-1080, HCT-116, and HEK293T cells were purchased from ATCC. KP230, HT-1080, and HEK-293T cells were grown in DMEM with 10% FBS, 1% L-glutamine, and 1% penicillin/streptomycin (P/S). STS-109 cells were cultured in DMEM with 20% FBS, 1% L-glutamine, and 1% P/S. TC32 cells were grown in RPMI with 10% FBS, 1% L-glutamine, and 1% P/S. HCT-116 cells were cultured in McCoy's 5A medium with 10% FBS and 1% P/S. All cells were confirmed to be negative for mycoplasma contamination and were maintained in an incubator at 37C with 5% CO2. For experimental purposes, cells were cultured for up to 20 passages before being discarded, and were grown to approximately 50% confluence to circumvent the effects of high cell density on Yap1 expression and activity. All cell lines in the Eisinger laboratory were treated with 10 μM of each inhibitor or an equivalent volume of DMSO every 24 hours for 3 days, except for STS-109 cells, which were treated daily for 8 days.
(§4) NB4A treatment: Cells were treated with 10 μM of each inhibitor or an equivalent volume of DMSO every 24 hours for 3-8 days, and counted with a hemocytometer with trypan blue exclusion daily (KP230, HT-1080, TC32, HCT-116), or every 2 days (STS-109).

[4] = system: H9 human pluripotent stem cells; assay: qPCR of YAP1, CTGF and CYR61 in H9 hPSCs; format: cell-based; conditions: 24 hrs
Protocol: H9 hPSCs (WiCell) were maintained on vitronectin (Thermo Fisher)-coated plates in Essential 8 (E8) medium. The cells were routinely passaged using 0.5 mM EDTA and treated with 5 μM Y-27632 dihydrochloride (Tocris) on the first day. For testing the effects of the small molecules, H9 hPSCs were seeded at 50K cells/cm^2 on vitronectin-coated plates in E8 medium supplemented with 5 μM Y-27632 dihydrochloride (day 0). On day 1, the medium was switched to E8 medium. On day 2, the medium was switched to E8 medium supplemented with the small molecules. Following overnight incubation, the cells were collected for subsequent analysis on day 3.
The RNA was extracted using TRIzol (Life Technologies) and Direct-zol™ RNA MiniPrep kit (Zymo Research) as per manufacturer instructions. The RNA was reverse transcribed using iScript cDNA synthesis kit (Bio-Rad). The qPCR was performed on CFX Connect (Bio-Rad) using iTaq Universal SYBR Green Supermix (Bio-Rad). GAPDH was used as a reference gene for normalization. The relative gene expression levels were determined using the ddCt method.

PAX8 = PAX8 (Homo sapiens, UniProt Q06710); conditions: per PubChem; cited from earlier work
[5] = system: YAP1 overexpression in U2OS cells; assay: Cell Painting morphological profile matching to YAP1/TAZ overexpression signature; format: cell-based, human; conditions: for Corr. to YAP1 cluster: Pearson correlation of Cell Painting signatures, U2OS cells
From the text: as §1
FIG. 2 provides an example characterization of matching the morphological signature of a gene query to the signature(s) of compounds in a library. Connections which show both positive and negative large correlations are considered as matches.
as §2

U2OS cells = assay: Cell count in U2OS Cell Painting images; format: cell-based, human; conditions: for Avg. Cell Count z-score: U2OS Cell Painting
From the text: as §1, §2

KP230 cells [6] = assay: Percent viability of KP230 cells; format: cell-based, mouse; conditions: 10 μM daily for 72 hours
From the text: as §3, with “For experimental purposes, cells were cultured for up to 20 passages before being discarded, and were grown to approximately 50% confluence to circumvent the effects of high cell density on Yap1 expression and activity. All cell lines in the Eisinger laboratory were treated with 10 μM of each inhibitor or an equivalent volume of DMSO every 24 hours for 3 days, except for STS-109 cells, which were treated daily for 8 days.” left out
as §4

murine periosteal cells = assay: qPCR of Yap1 and Cyr61 in murine periosteal cells; format: cell-based, mouse; conditions: 5 μM
Protocol: Murine periosteal cells were isolated from a transgenic mouse model (CMV-Cre; R26R-rtTA^fl; tetO-YAP^S127A) in which YAP1 can be activated in a doxycycline inducible manner (Camargo 2011). This mouse model expresses a mutant form of YAP1 (YAP^S127A) that escapes degradation. Cells were cultured in a-MEM with 15% Fetal Bovine serum (S11550, R&D Systems), 1% GlutaMAX-I (Gibco, 35050-061) and 1% Penicillin/Streptomycin (Gibco, 15140-122).
To induce YAP^S127A, […] doxycycline was added to the cell culture medium for 48 hours. This was used as a positive control to compare YAP1 mRNA expression. Cells were also treated with BRD-K34692511-001-01-9 at 5 μM. mRNA was isolated from cells (n=3/group/time point) at 1, 4 or 48 hours after treatment using Qiagen RNeasy Mini kit (Qiagen, 74106). cDNA was prepared as per the manufacturer's protocol using the High-Capacity Reverse Transcription kit (Thermofisher scientific, 4368814). qPCR analysis was performed using the QuantStudio 6 Pro Real-Time PCR System.

Sequence of PAX8 (Q06710 whole entry, species assumed): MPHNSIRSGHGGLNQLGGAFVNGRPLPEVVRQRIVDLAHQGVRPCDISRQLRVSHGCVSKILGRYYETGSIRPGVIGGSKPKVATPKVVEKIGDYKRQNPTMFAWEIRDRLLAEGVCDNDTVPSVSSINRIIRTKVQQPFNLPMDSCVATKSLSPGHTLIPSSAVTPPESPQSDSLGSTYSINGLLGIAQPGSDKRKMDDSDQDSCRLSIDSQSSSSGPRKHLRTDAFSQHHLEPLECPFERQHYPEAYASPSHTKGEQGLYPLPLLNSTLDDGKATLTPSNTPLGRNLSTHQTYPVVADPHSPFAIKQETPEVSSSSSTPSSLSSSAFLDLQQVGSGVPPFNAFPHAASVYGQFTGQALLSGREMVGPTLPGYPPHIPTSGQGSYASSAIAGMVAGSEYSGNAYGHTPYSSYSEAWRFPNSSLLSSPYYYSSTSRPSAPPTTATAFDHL

SMILES | AC50 ([1]; read-out: AC50, inhibition of cell proliferation) | Cell Painting profile correlation with TRAF2 overexpression [2] | Corr. to TRAF2 [2] | proliferation (KP230 cells [3]) | mRNA levels of hippo pathway members (YAP1, CTGF, CYR61) [4] | PAX8 inhibition (PAX8) | Cell Painting profile correlation with YAP1 overexpression [5] | Corr. to YAP1 cluster [5] | proliferation in the U2OS Cell Painting images (U2OS cells) | Avg. Cell Count z-score (U2OS cells) | cell viability (KP230 cells [6]) | AC50, inhibition of cell proliferation [1] | mRNA levels of Yap1 and Cyr61 (murine periosteal cells; 1 and 4 hours) | mRNA levels of Yap1 and Cyr61 (murine periosteal cells; 48 hours)
CO[C@@H]1CN(C)C(=O)c2ccc(NC(=O)c3ccc(-c4ccccc4)cc3)cc2OC[C@H](C)NC[C@@H]1C [BRD-K28862419, N-[(4S,7S,8S)-8-methoxy-4,7,10-trimethyl-11-oxo-2-oxa-5,10-diazabicyclo[10.4.0]hexadeca-1(12),13,15-trien-15-yl]-4-phenylbenzamide] | 5 to 18 µM | 0.41 | 0.4068 | inhibited KP230 cell proliferation | did not dramatically impact | inhibits PAX8 | −0.43 | −0.4317 | −2.0 st dev | −2.044 | modestly yet significantly reduced | – | – | –
CO[C@@H]1CN(C)C(=O)c2cc(NC(=O)Nc3ccc(C(F)(F)F)cc3)ccc2OC[C@@H](C)NC[C@@H]1C [BRD-K34692511, 1-[(4R,7S,8S)-8-methoxy-4,7,10-trimethyl-11-oxo-2-oxa-5,10-diazabicyclo[10.4.0]hexadeca-1(12),13,15-trien-14-yl]-3-[4-(trifluoromethyl)phenyl]urea] | – | 0.29 | 0.2869 | inhibited KP230 cell proliferation | did not dramatically impact | had none of these impacts | −0.45 | −0.4398 | had none of these impacts | 0.478 | – | had none of these impacts | not at 1 and 4 hours | substantially upregulated
